The numbers were not newly measured in patent US20160271257A1, “Low Molecular Weight Immune-Modulators As Adjuvants for Specific Immunotherapy” (PLS-DESIGN GMBH, priority 2013, published 2016), which cites them from elsewhere.

Structures are written as SMILES. In brackets after ≈: the same amount, converted by molar mass.

Assay in series [1]: not given
This is another data set of the same source.

Another series has as its target T1, C3aR (Homo sapiens, UniProt Q16581).
T1 sequence (Q16581 1-482): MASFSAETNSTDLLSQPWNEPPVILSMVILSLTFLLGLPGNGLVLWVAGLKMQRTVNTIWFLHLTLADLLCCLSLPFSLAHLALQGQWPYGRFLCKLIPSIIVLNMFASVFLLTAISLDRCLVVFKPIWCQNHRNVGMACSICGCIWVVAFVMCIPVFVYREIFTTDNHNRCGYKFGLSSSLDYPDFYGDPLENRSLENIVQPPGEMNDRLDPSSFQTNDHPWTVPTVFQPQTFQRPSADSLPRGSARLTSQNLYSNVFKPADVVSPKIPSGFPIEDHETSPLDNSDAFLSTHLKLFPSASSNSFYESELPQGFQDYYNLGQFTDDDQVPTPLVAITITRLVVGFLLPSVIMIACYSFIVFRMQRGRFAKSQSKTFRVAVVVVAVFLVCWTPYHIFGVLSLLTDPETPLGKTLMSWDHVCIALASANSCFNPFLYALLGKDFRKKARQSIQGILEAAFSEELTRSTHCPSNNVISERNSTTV
The settings on record: human neutrophils; read-out: IC50 of inhibition of C3a-induced calcium mobilization. A general note: A change in cytosolic calcium serves as a functional read-out for many receptors and channels.

As for `N=C(N)NCCCC(NC(=O)COCC(c1ccccc1)c1ccccc1)C(=O)O` [SB290157, N^2-[(2,2-dipheneylethoxy)acetyl]-L-arginine], the in vivo half-life entry is “short”. In addition, in series [1], the “solubility in DMSO” value was 5000 µg/mL (≈ 12.1 mM); the “solubility in saline solution containing 5% ethanol and 10% Cremaphor-EL” value is reported as “at least 10 mg/ml”. The IC50 at C3aR was 28 nM.

By IC50 is commonly meant the point on the concentration scale where inhibition reaches its midpoint.
